Like-named read-outs stand apart in the source and are kept apart here.
What was measured:
[1] = target: ligand binding domain of human FXR (Homo sapiens (Human), UniProt Q96RI1); experiment: FXR ligand binding assay (LanthaScreen FRET); conditions: for FXR pEC50: -log EC50; for Emax: read-out: % Efficacy;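 on all read-outs here: TR-FRET coactivator recruitment: ligand-induced binding of fluorescein-labelled SRC2-2 peptide to GST-tagged FXR LBD detected via Tb anti-GST antibody, serial compound dilutions, 3-parameter logistic fit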
Chain of ligand binding domain of human FXR (Q96RI1 262-486): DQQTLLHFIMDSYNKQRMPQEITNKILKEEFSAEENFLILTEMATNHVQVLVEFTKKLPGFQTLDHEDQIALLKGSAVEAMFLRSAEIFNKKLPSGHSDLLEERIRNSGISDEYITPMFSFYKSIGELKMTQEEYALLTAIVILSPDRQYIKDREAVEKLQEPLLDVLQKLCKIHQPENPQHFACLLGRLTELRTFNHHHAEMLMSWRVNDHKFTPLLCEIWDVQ
Experimental: The affinity of FXR ligands for the ligand binding domain of FXR was determined using a commercially available human FXR ligand binding assay (LanthaScreen, Thermofisher Cat #PV4833). […] Binding of FXR ligands to the FXR ligand binding domain promotes binding of the fluorescein-labelled SRC2-2 peptide. This causes a FRET signal between the terbium-labelled anti-GST antibody and the fluorescein-labelled SRC peptide which are both bound to the FXR ligand binding domain.
Test compounds are dissolved in DMSO and a 3-fold serial dilution series is generated, then further diluted into assay buffer. The compounds are mixed with 5 nM GST-tagged FXR ligand binding domain, 5 nM Tb-labelled anti-GST antibody and 500 nM fluorcscein-labelled SRC2-2 peptide in a pH 7.4 buffer. The reaction is incubated at room temperature for 1 hour, then the FRET signal is measured as the ratio of the 520 nm/495 nm emission following excitation at 340 nm. The change in FRET signal is plotted against the test article concentration and fit to a 3-parameter logistical equation.

[2] = target: human Farnesoid X receptor ligand-binding domain/Gal4 DNA binding domain chimera (Homo sapiens (Human), UniProt Q96RI1); experiment: Cell-based FXR beta-lactamase reporter assay (FXR-UAS-bla HEK 293T cells); conditions: for FXR pEC50 / % Efficacy / EC50: cellular FXR beta-lactamase reporter assay; for FXR pEC50 / EC50: -log EC50; for % Efficacy: extent of activation relative to GW4064; for Emax: HEK-293T, read-out: % Efficacy; for EC50: read-out: FXR pEC50 (converted)
Chain of human Farnesoid X receptor ligand-binding domain/Gal4 DNA binding domain chimera (Q96RI1 262-486, stated change not applied): as the sequence (Q96RI1 262-486) above
Experimental: FXR activation was measured using a cell line and procedure obtained from Life Technologies (Cat #K1691). FXR-UAS-bla HEK 293T cells contain a human Farnesoid X receptor ligand-binding domain/Gal4 DNA binding domain chimera stably integrated into the CellSensor® UAS-bla HEK 293T cell line. The CellSensor® UAS-bla HEK 293T contains a beta-lactamase reporter gene under control of a UAS response element stably integrated into HEK 293T cells. Activation of FXR by bound ligands results in transcriptional activation of the beta-lactamase reporter gene, which is detected via assay of beta-lactamase activity. Cells are harvested and diluted into assay medium containing phenol red-free DMEM supplemented with 2% Charcoal-stripped FBS, pyruvate, non-essential amino acids. Cells are then transferred to a 384 well assay plate. Test compounds are dissolved in DMSO and a 3-fold serial dilution series is generated, then further diluted into assay medium. […] A FRET-based […] is loaded into cells as its acetomethoxy ester. Intracellular esterases liberate free CCF4, a cephalosporin core linking 7-hydroxycoumarin to fluorescein. In the presence of beta-lactamase activity produced in the presence of FXR agonists, cleavage of CCF4 spatially separates the two dyes and disrupts FRET, so that exciting the coumarin at 409 nm now produces a blue fluorescence signal at 447 nm. The change in FRET signal is plotted against the test compound concentration and fit to a 3-parameter logistical equation.

Structure (SMILES) | Emax [2] [%] | EC50 [2] [nM] | other results
Cn1c(N2[C@@H]3CC[C@H]2C[C@@H](OC(=O)c2c(-c4c(Cl)cccc4Cl)noc2C2CC2)C3)nc2c(F)cc(C(=O)O)cc21 [Compound I-31, 2-[(1R,3R,5S)-3-[5-cyclopropyl-3-(2,6-dichlorophenyl)-1,2-oxazole-4-carbonyloxy]-8-azabicyclo[3.2.1]octan-8-yl]-4-fluoro-1-methyl-1H-1,3-benzodiazole-6-carboxylic Acid] |  |  | % Efficacy [1]: 63%; FXR pEC50 ([1]; FXR ligand binding assay): 6.6; FXR pEC50 [2]: 6.4; % Efficacy [2]: 100%
O=C(O)c1cc(F)c2nc(N3[C@@H]4CC[C@H]3C[C@@H](OC(=O)c3c(-c5c(Cl)cccc5Cl)noc3C3CCC3)C4)sc2c1 [Compound I-24, 2-[(1R,3R,5S)-3-[5-cyclobutyl-3-(2,6-dichlorophenyl)-1,2-oxazole-4-carbonyloxy]-8-azabicyclo[3.2.1]octan-8-yl]-4-fluoro-1,3-benzothiazole-6-carboxylic Acid] |  |  | FXR pEC50 ([1]; FXR ligand binding assay): 7.9; % Efficacy ([1]; FXR ligand binding assay, extent of activation relative to GW4064): 64%; FXR pEC50 [2]: 7.5; % Efficacy [2]: 98%
COc1cc2nc(N3[C@@H]4CC[C@H]3C[C@@H](OC(=O)c3c(-c5c(Cl)cccc5Cl)noc3C3CC3)C4)sc2cc1C(=O)O [Compound I-7, 2-[(1R,3R,5S)-3-[5-cyclopropyl-3-(2,6-dichlorophenyl)-1,2-oxazole-4-carbonyloxy]-8-azabicyclo[3.2.1]octan-8-yl]-5-methoxy-1,3-benzothiazole-6-carboxylic Acid] | 110 | 7.94 | Emax [1]: 125%
Cn1c(N2[C@@H]3CC[C@H]2C[C@@H](OC(=O)Cc2c(-c4c(Cl)cccc4Cl)noc2C2CC2)C3)nc2c(F)cc(C(=O)O)cc21 [Compound I-33, 2-[(1R,3R,5S)-3-({2-[5-cyclopropyl-3-(2,6-dichlorophenyl)-1,2-oxazol-4-yl]acetyl}oxy)-8-azabicyclo[3.2.1]octan-8-yl]-4-fluoro-1-methyl-1H-1,3-benzodiazole-6-carboxylic Acid] | 72 |  | 
O=C(NS(=O)(=O)CCCO)c1ccc(N2[C@@H]3CC[C@H]2C[C@@H](OC(=O)c2c(-c4c(Cl)cccc4Cl)noc2C2CC2)C3)cc1 [Compound I-50, (1R,3R,5S)-8-{4-[(3-hydroxypropanesulfonyl)carbamoyl]phenyl}-8-azabicyclo[3.2.1]octan-3-yl 5-cyclopropyl-3-(2,6-dichlorophenyl)-1,2-oxazole-4-carboxylate] | 102 | 158 | 
O=C(O)c1cccc(S(=O)(=O)N2[C@@H]3CC[C@H]2C[C@@H](OC(=O)c2c(-c4c(Cl)cccc4Cl)noc2C2CC2)C3)c1 [Compound I-55, 3-{[(1R,3R,5S)-3-[5-cyclopropyl-3-(2,6-dichlorophenyl)-1,2-oxazole-4-carbonyloxy]-8-azabicyclo[3.2.1]octan-8-yl]sulfonyl}benzoic Acid] | 96 | 1000 | 
COc1cc(C(=O)O)cc2sc(N3[C@@H]4CC[C@H]3C[C@@H](OC(=O)c3c(C56CCC(CC5)CC6)noc3C3CC3)C4)nc12 [Compound I-21, 2-[(1R,3R,5S)-3-(3-{bicyclo[2.2.2]octan-1-yl}-5-cyclopropyl-1,2-oxazole-4-carbonyloxy)-8-azabicyclo[3.2.1]octan-8-yl]-4-methoxy-1,3-benzothiazole-6-carboxylic Acid] | 44 |  | 
COc1cc2nc(N3[C@@H]4CC[C@H]3C[C@@H](OC(=O)c3c(C56CCC(CC5)CC6)noc3C3CC3)C4)sc2cc1C(=O)O [Compound I-22, 2-[(1R,3R,5S)-3-(3-{bicyclo[2.2.2]octan-1-yl}-5-cyclopropyl-1,2-oxazole-4-carbonyloxy)-8-azabicyclo[3.2.1]octan-8-yl]-5-methoxy-1,3-benzothiazole-6-carboxylic Acid] | 44 | 398 | 
NC(=O)c1cc(F)c2nc(N3[C@@H]4CC[C@H]3C[C@@H](OC(=O)c3c(-c5c(Cl)cccc5Cl)noc3C3CC3)C4)sc2c1 [Compound I-3, (1R,3R,5S)-8-(6-carbamoyl-4-fluoro-1,3-benzothiazol-2-yl)-8-azabicyclo[3.2.1]octan-3-yl 5-cyclopropyl-3-(2,6-dichlorophenyl)-1,2-oxazole-4-carboxylate] |  |  | Emax [1]: 60%

— patent publication US11091482B2, “Isoxazolyl-carbonyloxy azabicyclo[3.2.1]octanyl compounds as FXR activators” (ARDELYX, INC., priority 2016, dated 2021)
